Data taken from paper PMC4519322 (PLoS Pathogens, 2015).

Key:
Y289H rWSN = type: cell-based, influenza A virus; details: read-out: IC50 (μM) Y289H rWSM (H1N1)
A/WSN/1933 (H1N1) = type: cell-based, influenza A virus

SMILES	IC50 (Y289H rWSN)	sensitivity of RK424 3rd passage virus (A/WSN/1933 (H1N1))	sensitivity of nucleozin 4th passage virus (A/WSN/1933 (H1N1))
Cc1onc(-c2ccccc2)c1C(=O)N1CCN(c2ccc([N+](=O)[O-])cc2Cl)CC1 [Nucleozin, nucleozin, reference compound]	> 100 µM	susceptible	exhibited resistance
O=C(O)c1cc(-c2ccc(-c3ccccc3)cc2)nc2ccccc12 [RK424]	0.3 ± 0.1 µM	susceptible	but not RK424
